The source of these data is patent publication US10662183B2, “Inhibitors of myocardin-related transcription factor and serum response factor (MRTF/SRF)-mediated gene transcription and methods for use of the same” (THE REGENTS OF THE UNIVERSITY OF MICHIGAN, priority 2014, dated 2020).

Molecules are shown by their SMILES.

The first assay has as its system SRE.L-firefly luciferase reporter (Rho/MKL1 pathway) in PC-3 prostate cancer cells. The assay can be described thus: SRE.L-luciferase reporter assay. The assay is classed as cell-based. The note with it: 19 h, PC-3 cells transfected with Gα12Q231L, SRE.L and pRL-TK reporters; compound 19 hrs. As to the method: Seed PC-3 prostate cancer cells (40,000 cells/well) were grown in 96-well plates in 10% FBS containing DMEM medium. Cells were transiently transfected with the Ga12QL activator of the Rho/MKL1 pathway, along with the SRE.L-firefly luciferase reporter construct for 6 hours. Additionally, cells were co-transfected with the TK-Renilla luciferase reporter as an indicator of non-specific compound effects. Various concentrations of the compounds disclosed herein were added to the 96-well plates. Plates were incubated for 19 hours at 37° C. and 5% C02 in 0.5% FBS containing DMEM medium. Cells were lysed with IX Passive Lysis Buffer (Promega). Plates were incubated for 30 minutes at room temperature. Luminescence counts were read with a Victor2 (Perkin-Elmer) plate reader.
One hour prior to cell lysis for the dual luciferase assay, 10 μl: per well of WST1 reagent (Roche) was added to the 96-well plates. Plates were incubated for 1 hour at 37° C. and 5% CO2. Cell viability was measured by WST1 absorbance at 450 nm with a Victor2 (Perkin-Elmer) plate reader.
Biological activity of the compounds disclosed herein were assessed in the SRE.L luciferase reporter assay. PC-3 prostate cancer cells were co-transfected with 2 ng of the Gα12Q231L expression plasmid along with 50 ng of the SRE.L and 7 ng of the pRL-TK luciferase reporter plasmids, as described in the Materials and Methods section. Cells were treated with 0 (vehicle, DMSO alone), 1, 3, 10, 30, and 100 μM of a compound disclosed herein for 19 hrs after transfection before lysis. Luminescence was determined as described in the Materials and Methods section. Just before cell lysis, the viability of the cells was measured using the WST-1 cell proliferation reagent as described in the Materials and Methods section. Data are expressed as percentage of inhibition (DMSO alone=0%). The experiments were performed three separate times to achieve n=3 in triplicate.
On to `CC(C)(C(=O)N1CCCC(C(=O)Nc2ccc(Cl)cc2)C1)c1csc(-c2ccc(F)cc2)n1` (centres unmarked) [Example E-077, N-(4-chlorophenyl)-1-(2-(2-(4-fluorophenyl)thiazol-4-yl)-2-methylpropanoyl)piperidine-3-carboxamide], for which the IC50 was 0.81 µM.

As to `O=C(Nc1ccc(Cl)cc1)C1CN(C(=O)c2cc(-c3ccco3)ccn2)CC(F)(F)C1` (centres unmarked) [Example E-025, N-(4-chlorophenyl)-5,5-difluoro-1-{[4-(furan-2-yl)pyridin-2-yl]carbonyl}piperidine-3-carboxamide], the midpoint of inhibition, the IC50, lay at 0.81 µM. In turn, `O=C(Nc1ccc(Cl)cc1)C1CN(C(=O)c2cncc(-c3ccco3)c2)CC(F)(F)C1` (centres unmarked) [Example E-026, N-(4-chlorophenyl)-5,5-difluoro-1-{[5-(furan-2-yl)pyridin-3-yl]carbonyl}piperidine-3-carboxamide] came in with an IC50 of 5.3 µM.

For the compound `COC1(OC)CC(C(=O)Nc2ccc(Cl)cc2)CN(C(=O)c2cccc(-c3ccco3)c2)C1` (centres unmarked) [Example E-021, N-(4-chlorophenyl)-1-(3-(furan-2-yl)benzoyl)-5,5-dimethoxypiperidine-3-carboxamide], it took 4.4 µM to reach half-maximal inhibition (IC50). Compound `O=C(Nc1ccc(Cl)cc1)C1CN(C(=O)c2cccc(-c3ncc[nH]3)c2)CC(F)(F)C1` (centres unmarked) [Example E-098, 1-(3-(1H-imidazol-2-yl)benzoyl)-N-(4-chlorophenyl)-5,5-difluoropiperidine-3-carboxamide] showed an IC50 of 10 µM.

Compound `O=C(c1cccc(-c2ccco2)c1)N1CC(COc2ccc(Cl)cc2)CC(F)(F)C1` (centres unmarked) [Example E-059, (5-((4-chlorophenoxy)methyl)-3,3-difluoropiperidin-1-yl) (3-(furan-2-yl)phenyl)methanone] returned an IC50 of 31 µM. Same read-out and setting: the result for `O=C(c1cccc(-c2ccco2)c1)N1CCCC(F)(C(=O)Nc2ccc(Cl)cc2)C1` (centres unmarked) [Example E-001, N-(4-chlorophenyl)-3-fluoro-1-(3-(furan-2-yl)benzoyl)piperidine-3-carboxamide] reads 7.3 µM; that for `O=C(Nc1ccc(Cl)cc1)C1CCCN(C(=O)c2n[nH]c3ccccc23)C1` (centres unmarked) [Example E-088, N-(4-chlorophenyl)-1-(1H-indazole-3-carbonyl)piperidine-3-carboxamide], 1.5 µM; that for `NC1CC(C(=O)Nc2ccc(Cl)cc2)CN(C(=O)c2cccc(-c3ccco3)c2)C1` (centres unmarked) [Example E-043, 5-amino-N-(4-chlorophenyl)-1-(3-(furan-2-yl)benzoyl)piperidine-3-carboxamide], 5 µM. For `CNC1CC(C(=O)Nc2ccc(Cl)cc2)CN(C(=O)c2cccc(-c3ccco3)c2)C1` (centres unmarked) [Example E-044, N-(4-chlorophenyl)-1-(3-(furan-2-yl)benzoyl)-5-(methylamino)piperidine-3-carboxamide], the midpoint of inhibition, the IC50, lay at 2.2 µM.

As for `CCC(=O)NC1CC(C(=O)Nc2ccc(Cl)cc2)CN(C(=O)c2cccc(-c3ccco3)c2)C1` (centres unmarked) [Example E-049, N-(4-chlorophenyl)-1-(3-(furan-2-yl)benzoyl)-5-propionamidopiperidine-3-carboxamide], the IC50 was 6.3 µM.

In turn, `Cc1oc(-c2ccccc2)nc1C(=O)N1CCCC(C(=O)Nc2ccc(Cl)cc2)C1` (centres unmarked) [Example E-069, N-(4-chlorophenyl)-1-(5-methyl-2-phenyloxazole-4-carbonyl)piperidine-3-carboxamide] showed an IC50 of 1.8 µM. The same measure, in the same setting: the result for `O=C(Nc1ccc(Cl)cc1)C1CCN(C(=O)c2cccc(-c3ccco3)c2)C1` (centres unmarked) [Example E-107, N-(4-chlorophenyl)-1-(3-(furan-2-yl)benzoyl)pyrrolidine-3-carboxamide] reads 14 µM; that for `O=C(c1cccc(-c2ccco2)c1)N1CCCC(NS(=O)(=O)c2ccc(Cl)cc2)C1` (centres unmarked) [Example E-062, 4-chloro-N-(1-(3-(furan-2-yl)benzoyl)piperidin-3-yl)benzenesulfonamide], 21 µM; that for `O=C(Nc1ccc(Cl)cc1)C1CN(C(=O)c2cccc(-c3cncnc3)c2)CC(F)(F)C1` (centres unmarked) [Example E-099, N-(4-chlorophenyl)-5,5-difluoro-1-(3-(pyrimidin-5-yl)benzoyl)piperidine-3-carboxamide], 3.3 µM. On the same count and under the same terms, the same measure for `O=C(Nc1ccc(Cl)cc1)C1CCCN(C(=O)c2cccc(-c3ccc(Cl)o3)c2)C1` (centres unmarked) [Example E-003, 1-(3-(5-chlorofuran-2-yl)benzoyl)-N-(4-chlorophenyl)piperidine-3-carboxamide]: 12 µM. Still for that read-out and setting: the same measure for `O=C(Nc1ccc(Cl)cc1)C1CCCN(C(=O)c2cc(-c3ccco3)[nH]n2)C1` (centres unmarked) [Example E-040, N-(4-chlorophenyl)-1-(5-(furan-2-yl)-1H-pyrazole-3-carbonyl)piperidine-3-carboxamide]: 8.1 µM; for `O=C(Nc1ccc(Cl)cc1)C1CCCN(C(=O)c2cccc(-c3ccco3)c2)C1` (centres unmarked) [Example E-002, N-(4-chlorophenyl)-1-(3-(furan-2-yl)benzoyl)piperidine-3-carboxamide]: 7.1 µM. On to `CN1CCN(C(=O)c2cccc(-c3ccco3)c2)CC1C(=O)Nc1ccc(Cl)cc1` (centres unmarked) [Example E-018, N-(4-chlorophenyl)-4-(3-(furan-2-yl)benzoyl)-1-methylpiperazine-2-carboxamide], for which half-maximal inhibition (IC50) was put at 8.7 µM.

Compound `O=C(Nc1ccc(Cl)cc1)C1CCCN(C(=O)c2ccc(-n3cccc3)cc2)C1` (centres unmarked) [Example E-109, 1-(4-(1H-pyrrol-1-yl)benzoyl)-N-(4-chlorophenyl)piperidine-3-carboxamide] gave an IC50 of 6.3 µM.

Turning to `O=C(Nc1ccc(Cl)cc1)C1CCCN(C(=O)Cc2c[nH]c3ccccc23)C1` (centres unmarked) [Example E-084, 1-(2-(1H-indol-3-yl)acetyl)-N-(4-chlorophenyl)piperidine-3-carboxamide], the IC50 worked out at 0.39 µM. Still for that read-out and setting: the same measure for `O=C(Nc1ccc(Cl)cc1)C1CCCN(C(=O)c2ccccc2-n2cccn2)C1` (centres unmarked) [Example E-090, 1-(2-(1H-pyrazol-1-yl)benzoyl)-N-(4-chlorophenyl) piperidine-3-carboxamide]: 0.24 µM; for `O=C(c1cccc(-c2cn[nH]c2)c1)N1CC(COc2ccc(Cl)cc2)CC(F)(F)C1` (centres unmarked) [Example E-051, (3-(1H-pyrazol-4-yl)phenyl)(5-((4-chlorophenoxy)methyl)-3,3-difluoropiperidin-1-yl)methanone]: 3.3 µM; for `O=C(Nc1ccc(Cl)cc1)C1CCCN(C(=O)c2ccccc2-n2ccnc2)C1` (centres unmarked) [Example E-091, 1-(2-(1H-imidazol-1-yl)benzoyl)-N-(4-chlorophenyl) piperidine-3-carboxamide]: 4.1 µM. On the same count and under the same terms, the same measure for `Cn1c(C(=O)N2CCCC(C(=O)Nc3ccc(Cl)cc3)C2)nc2ccccc21` (centres unmarked) [Example E-035, N-(4-chlorophenyl)-1-(1-methyl-1H-benzo[d]imidazole-2-carbonyl)piperidine-3-carboxamide]: 8 µM; for `O=C(Nc1ccc(Cl)cc1)C1CN(C(=O)Cc2nc3ccccc3[nH]2)CC(F)(F)C1` (centres unmarked) [Example E-070, 1-(2-(1H-benzo[d]imidazol-2-yl)acetyl)-N-(4-chlorophenyl)-5,5-difluoropiperidine-3-carboxamide]: 9.1 µM. The same measure, in the same setting: the same measure for `O=C(NC1CCCN(C(=O)c2cccc(-c3ccco3)c2)C1)c1ccc(Cl)cc1` (centres unmarked) [Example E-065, 4-chloro-N-(1-(3-(furan-2-yl)benzoyl)piperidin-3-yl)benzamide]: 13 µM; for `CC(C)C(=O)N1CCN(C(=O)c2cccc(-c3ccco3)c2)CC1C(=O)Nc1ccc(Cl)cc1` (centres unmarked) [Example E-006, N-(4-chlorophen)-4-(3-(furan-2-yl)benzoyl)-1-isobutyrylpiperazine-2-carboxamide]: 12 µM.

The assay is the same for the next values; noted with them: PC-3 cells transfected with Gα12Q231L, SRE.L and pRL-TK reporters; compound 19 hrs.
In the case of `O=C(NC1CC(C(=O)Nc2ccc(Cl)cc2)CN(C(=O)c2cccc(-c3ccco3)c2)C1)Oc1ccccc1` (centres unmarked) [Example E-056, phenyl (5-((4-chlorophenyl)carbamoyl)-1-(3-(furan-2-yl)benzoyl)piperidin-3-yl)carbamate], the IC50 came out at 38 µM. Same read-out and setting: the same measure for `CN(Cc1ccccc1)C1CC(C(=O)Nc2ccc(Cl)cc2)CN(C(=O)c2cccc(-c3ccco3)c2)C1` (single isomer, unassigned) [Example E-060, 5-(benzyl(methyl)amino)-N-(4-chlorophenyl)-1-(3-(furan-2-yl)benzoyl)piperidine-3-carboxamide]: 18 µM. The same measure, in the same setting: the same measure for `CN(Cc1ccccc1)C1CC(C(=O)Nc2ccc(Cl)cc2)CN(C(=O)c2cccc(-c3ccco3)c2)C1` (single isomer, unassigned) [Example E-061, 5-(benzyl(methyl)amino)-N-(4-chlorophenyl)-1-(3-(furan-2-yl)benzoyl)piperidine-3-carboxamide]: 1.9 µM; for `COC1CC(C(=O)Nc2ccc(Cl)cc2)CN(C(=O)c2cccc(-c3ccco3)c2)C1` (single isomer, unassigned) [Example E-046, N-(4-chlorophenyl)-1-(3-(furan-2-yl)benzoyl)-5-methoxypiperidine-3-carboxamide]: 2.3 µM.
